Values quoted from earlier work as cited in US20250042963A1, “METHODS FOR TREATING MYELOPROLIFERATIVE DISORDERS” (Acceleron Pharma Inc., priority 2015, published 2025).

Key:
[1] = system: MF patients; conditions: cited from earlier work
[2] = system: patients with PV that did not respond to hydroxyurea; conditions: cited from earlier work
[3] = system: patients with a myeloproliferative disorder; conditions: symptomatic splenomegaly; cited from earlier work
[4] = system: myelofibrosis patients; conditions: cited from earlier work
[5] = system: patients with MF; conditions: 82 evaluable patients with MF, three phase 1 and 2 trials; cited from earlier work
[6] = system: JAK2V617F-positive cells; conditions: cited from earlier work
[7] = system: patients with PMF or post-PV/ET MF; conditions: cited from earlier work

For `CCCCc1nc2cc(/C=C/C(=O)NO)ccc2n1CCN(CC)CC` [pracinostat], the “IWG criteria anemia responses” value ([1]; MF patients) is given as “approximately 10%” and the “reduction in spleen size (% of patients)” value ([1]; human, in vivo) is given as 27%.

For `CCN(CC)Cc1ccc2cc(COC(=O)Nc3ccc(C(=O)NO)cc3)ccc2c1` [Givinostat, givinostat], the “complete or partial response” value ([2]; randomized phase 2 trial, PV) is listed as “approximately 50%” and the tolerability ([2]; the combination) is listed as “generally well tolerated”.

For `O=C1CCC(N2C(=O)c3ccccc3C2=O)C(=O)N1` (centres unmarked) [thalidomide], the “spleen responses / response rate” value [3] is given as under 20% and the tolerability ([4]; myelofibrosis patients, peripheral neuropathies, constipation, somnolence) is given as “poorly tolerated”.

For `Nc1cccc2c1CN(C1CCC(=O)NC1=O)C2=O` (centres unmarked) [lenalidomide], the “spleen responses / response rate” value [3] is listed as 33% and the effect on anemia ([4]; myelofibrosis patients with del(5q31)-associated anemia) is listed as “significant improvement, with resolution of anemia”.

In the case of `Nc1cccc2c1C(=O)N(C1CCC(=O)NC1=O)C2=O` (centres unmarked) [pomalidomide], the “anemia response according to IWG-MRT criteria” value [5] is listed as 27%.

In the case of `CO[C@H]1C[C@@H]2CC[C@@H](C)[C@@](O)(O2)C(=O)C(=O)N2CCCC[C@H]2C(=O)O[C@H]([C@H](C)C[C@@H]2CC[C@@H](OCCO)[C@H](OC)C2)CC(=O)[C@H](C)/C=C(\C)[C@@H](O)[C@@H](OC)C(=O)[C@H](C)C[C@H](C)/C=C/C=C/C=C/1C` [everolimus], the “proliferation of JAK2V617F-positive cells” value [6] is given as “decreased”, the “complete resolution of pruritus” value ([7]; 30 evaluable patients) is given as 80% and the “complete resolution of systemic symptoms” value ([7]; 30 evaluable patients) is given as 69%. The “response rate, European Myelofibrosis Network criteria” value ([7]; in vivo) was 60% and the “response rate, International Working Group for Myelofibrosis Research and Treatment criteria” value ([7]; in vivo) was 23%.
